Source: ChEMBL document CHEMBL5715260, “Selectivity Literature for EUbOPEN Chemogenomic Library” (2024)

What was measured:
[1] = biological target: Nuclear receptor subfamily 2 group E member 1 (Homo sapiens) (UniProt Q9Y466); assay: Selectivity interaction (Reporter gene assay) EUB0001153a NR2E1; design: recommended concentration 10 uM
[2] = biological target: Steroidogenic factor 1 (Homo sapiens) (UniProt Q13285); assay: Selectivity interaction (Reporter gene assay) EUB0001153a NR5A1; design: recommended concentration 10 uM
[3] = biological target: T1, Nuclear receptor subfamily 2 group C member 1 (Homo sapiens) (UniProt P13056); assay: Selectivity interaction (Reporter gene assay) EUB0001153a NR2C1; design: recommended concentration 10 uM
T1 sequence (whole entry): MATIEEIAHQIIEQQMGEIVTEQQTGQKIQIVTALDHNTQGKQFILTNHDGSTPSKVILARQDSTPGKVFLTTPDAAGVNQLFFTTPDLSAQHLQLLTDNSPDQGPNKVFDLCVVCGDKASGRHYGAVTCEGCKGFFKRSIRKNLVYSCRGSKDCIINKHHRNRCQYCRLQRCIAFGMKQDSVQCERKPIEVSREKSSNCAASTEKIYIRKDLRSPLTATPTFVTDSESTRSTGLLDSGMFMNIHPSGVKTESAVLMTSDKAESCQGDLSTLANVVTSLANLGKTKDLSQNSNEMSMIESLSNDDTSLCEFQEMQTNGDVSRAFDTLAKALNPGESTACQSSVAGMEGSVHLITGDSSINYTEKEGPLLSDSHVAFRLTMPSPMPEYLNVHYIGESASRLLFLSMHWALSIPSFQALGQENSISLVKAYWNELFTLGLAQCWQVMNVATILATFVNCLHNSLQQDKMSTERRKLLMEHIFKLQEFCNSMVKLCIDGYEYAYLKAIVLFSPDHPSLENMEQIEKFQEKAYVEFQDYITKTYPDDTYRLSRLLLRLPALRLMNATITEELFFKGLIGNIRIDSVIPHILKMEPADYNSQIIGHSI

[4] = biological target: T2, Hepatocyte nuclear factor 4-alpha (Homo sapiens) (UniProt P41235); assay: Selectivity interaction (Reporter gene assay) EUB0001153a HNF4A; design: recommended concentration 10 uM
T2 sequence (whole entry): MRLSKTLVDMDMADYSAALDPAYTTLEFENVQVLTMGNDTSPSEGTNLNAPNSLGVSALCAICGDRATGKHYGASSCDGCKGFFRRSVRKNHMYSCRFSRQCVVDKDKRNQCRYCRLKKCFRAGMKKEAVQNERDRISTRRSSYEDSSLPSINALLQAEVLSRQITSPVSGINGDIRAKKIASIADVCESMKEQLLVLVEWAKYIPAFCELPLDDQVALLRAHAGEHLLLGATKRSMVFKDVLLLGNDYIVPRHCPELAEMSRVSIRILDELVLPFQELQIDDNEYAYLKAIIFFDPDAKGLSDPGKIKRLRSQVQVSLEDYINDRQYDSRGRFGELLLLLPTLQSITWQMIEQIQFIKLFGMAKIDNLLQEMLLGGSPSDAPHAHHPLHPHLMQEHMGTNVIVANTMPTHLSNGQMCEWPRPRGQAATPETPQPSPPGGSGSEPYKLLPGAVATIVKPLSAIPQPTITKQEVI

[5] = biological target: T3, Retinoic acid receptor RXR-alpha (Homo sapiens) (UniProt P19793); assay: Selectivity interaction (Reporter gene assay) EUB0001153a RXRA; design: recommended concentration 10 uM; conditions: reference bexarotene 1 uM, Selectivity number of off-targets 0.0, Selectivity number of targets 1.0, Source Knowledge inhouse
T3 sequence (whole entry): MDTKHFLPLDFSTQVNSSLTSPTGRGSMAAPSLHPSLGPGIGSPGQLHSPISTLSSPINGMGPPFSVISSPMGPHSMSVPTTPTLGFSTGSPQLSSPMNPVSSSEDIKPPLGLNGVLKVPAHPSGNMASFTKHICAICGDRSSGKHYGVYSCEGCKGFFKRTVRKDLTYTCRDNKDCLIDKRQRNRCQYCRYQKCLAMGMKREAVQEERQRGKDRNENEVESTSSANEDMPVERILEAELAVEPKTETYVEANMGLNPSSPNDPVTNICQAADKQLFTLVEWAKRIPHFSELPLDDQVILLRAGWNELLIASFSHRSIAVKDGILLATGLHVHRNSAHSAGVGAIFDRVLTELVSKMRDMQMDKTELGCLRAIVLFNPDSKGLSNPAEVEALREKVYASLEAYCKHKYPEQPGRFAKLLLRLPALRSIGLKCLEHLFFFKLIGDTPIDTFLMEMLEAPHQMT

[6] = biological target: Nuclear receptor subfamily 4immunitygroup A member 1 (Homo sapiens) (UniProt P22736); assay: Selectivity interaction (Reporter gene assay) EUB0001153a NR4A1; design: recommended concentration 10 uM; conditions: screened at recom. conc., Selectivity number of off-targets 1.0, Selectivity number of targets 5.0, Source Knowledge inhouse
[7] = biological target: T4, Alpha trans-inducing protein (Human alphaherpesvirus 1) (UniProt A0A5J6DW59); assay: Selectivity interaction (Reporter gene assay) EUB0001153a UL48; design: recommended concentration 10 uM
[8] = biological target: T1, Nuclear receptor subfamily 2 group C member 1 (Homo sapiens); assay: Selectivity interaction (Reporter gene assay) EUB0001156a NR2C1; design: recommended concentration 1 uM
[9] = biological target: T3, Retinoic acid receptor RXR-alpha (Homo sapiens); assay: Selectivity interaction (Reporter gene assay) EUB0001156a RXRA; design: recommended concentration 1 uM; conditions: reference bexarotene 1 uM, Selectivity number of off-targets 0.0, Selectivity number of targets 1.0, Source Knowledge inhouse
[10] = biological target: T4, Alpha trans-inducing protein (Human alphaherpesvirus 1); assay: Selectivity interaction (Reporter gene assay) EUB0001156a UL48; design: recommended concentration 1 uM; conditions: screened at recom. conc., Selectivity number of off-targets 0.0, Selectivity number of targets 1.0, Source Knowledge inhouse
[11] = biological target: Nuclear receptor subfamily 4immunitygroup A member 1 (Homo sapiens) (UniProt P22736); assay: Selectivity interaction (Reporter gene assay) EUB0001156a NR4A1; design: recommended concentration 1 uM
[12] = biological target: T2, Hepatocyte nuclear factor 4-alpha (Homo sapiens); assay: Selectivity interaction (Reporter gene assay) EUB0001156a HNF4A; design: recommended concentration 1 uM
[13] = biological target: Steroidogenic factor 1 (Homo sapiens) (UniProt Q13285); assay: Selectivity interaction (Reporter gene assay) EUB0001156a NR5A1; design: recommended concentration 1 uM
[14] = biological target: Nuclear receptor subfamily 2 group E member 1 (Homo sapiens) (UniProt Q9Y466); assay: Selectivity interaction (Reporter gene assay) EUB0001156a NR2E1; design: recommended concentration 1 uM
[15] = biological target: T1, Nuclear receptor subfamily 2 group C member 1 (Homo sapiens); assay: Selectivity interaction (Reporter gene assay) EUB0001155a NR2C1; design: recommended concentration 10 uM; conditions: screened at recom. conc., Selectivity number of off-targets 2.0, Selectivity number of targets 5.0, Source Knowledge inhouse
[16] = biological target: T2, Hepatocyte nuclear factor 4-alpha (Homo sapiens); assay: Selectivity interaction (Reporter gene assay) EUB0001155a HNF4A; design: recommended concentration 10 uM
[17] = biological target: Steroidogenic factor 1 (Homo sapiens) (UniProt Q13285); assay: Selectivity interaction (Reporter gene assay) EUB0001155a NR5A1; design: recommended concentration 10 uM
[18] = biological target: T4, Alpha trans-inducing protein (Human alphaherpesvirus 1); assay: Selectivity interaction (Reporter gene assay) EUB0001155a UL48; design: recommended concentration 10 uM
[19] = biological target: Nuclear receptor subfamily 4immunitygroup A member 1 (Homo sapiens) (UniProt P22736); assay: Selectivity interaction (Reporter gene assay) EUB0001155a NR4A1; design: recommended concentration 10 uM
[20] = biological target: Nuclear receptor subfamily 2 group E member 1 (Homo sapiens) (UniProt Q9Y466); assay: Selectivity interaction (Reporter gene assay) EUB0001155a NR2E1; design: recommended concentration 10 uM; conditions: screened at recom. conc., Selectivity number of off-targets 2.0, Selectivity number of targets 5.0, Source Knowledge inhouse
[21] = biological target: T3, Retinoic acid receptor RXR-alpha (Homo sapiens); assay: Selectivity interaction (Reporter gene assay) EUB0001155a RXRA; design: recommended concentration 10 uM; conditions: reference bexarotene 1 uM, Selectivity number of off-targets 0.0, Selectivity number of targets 1.0, Source Knowledge inhouse
[22] = biological target: Peroxisome proliferator-activated receptor alpha (Homo sapiens) (UniProt Q07869); assay: Selectivity interaction (Reporter gene assay) EUB0001149a PPARA; design: recommended concentration 1 uM; conditions: screened at recom. conc., Selectivity number of off-targets 1.0, Selectivity number of targets 19.0, Source Knowledge inhouse
[23] = biological target: Steroidogenic factor 1 (Homo sapiens) (UniProt Q13285); assay: Selectivity interaction (Reporter gene assay) EUB0001149a NR5A1; design: recommended concentration 1 uM
[24] = biological target: T1, Nuclear receptor subfamily 2 group C member 1 (Homo sapiens); assay: Selectivity interaction (Reporter gene assay) EUB0001149a NR2C1; design: recommended concentration 1 uM
[25] = biological target: T3, Retinoic acid receptor RXR-alpha (Homo sapiens); assay: Selectivity interaction (Reporter gene assay) EUB0001149a RXRA; design: recommended concentration 1 uM; conditions: reference bexarotene 1 uM, Selectivity number of off-targets 0.0, Selectivity number of targets 1.0, Source Knowledge inhouse
[26] = biological target: Nuclear receptor subfamily 2 group E member 1 (Homo sapiens) (UniProt Q9Y466); assay: Selectivity interaction (Reporter gene assay) EUB0001149a NR2E1; design: recommended concentration 1 uM
[27] = biological target: T4, Alpha trans-inducing protein (Human alphaherpesvirus 1); assay: Selectivity interaction (Reporter gene assay) EUB0001149a UL48; design: recommended concentration 1 uM
[28] = biological target: Nuclear receptor subfamily 4immunitygroup A member 1 (Homo sapiens) (UniProt P22736); assay: Selectivity interaction (Reporter gene assay) EUB0001149a NR4A1; design: recommended concentration 1 uM
[29] = biological target: T2, Hepatocyte nuclear factor 4-alpha (Homo sapiens); assay: Selectivity interaction (Reporter gene assay) EUB0001149a HNF4A; design: recommended concentration 1 uM
[30] = biological target: T1, Nuclear receptor subfamily 2 group C member 1 (Homo sapiens); assay: Selectivity interaction (Reporter gene assay) EUB0001145aNa NR2C1; design: recommended concentration 1 uM
[31] = biological target: Steroidogenic factor 1 (Homo sapiens) (UniProt Q13285); assay: Selectivity interaction (Reporter gene assay) EUB0001145aNa NR5A1; design: recommended concentration 1 uM
[32] = biological target: T3, Retinoic acid receptor RXR-alpha (Homo sapiens); assay: Selectivity interaction (Reporter gene assay) EUB0001145aNa RXRA; design: recommended concentration 1 uM; conditions: reference bexarotene 1 uM, Selectivity number of off-targets 0.0, Selectivity number of targets 1.0, Source Knowledge inhouse
[33] = biological target: T4, Alpha trans-inducing protein (Human alphaherpesvirus 1); assay: Selectivity interaction (Reporter gene assay) EUB0001145aNa UL48; design: recommended concentration 1 uM
[34] = biological target: T2, Hepatocyte nuclear factor 4-alpha (Homo sapiens); assay: Selectivity interaction (Reporter gene assay) EUB0001145aNa HNF4A; design: recommended concentration 1 uM
[35] = biological target: Nuclear receptor subfamily 4immunitygroup A member 1 (Homo sapiens) (UniProt P22736); assay: Selectivity interaction (Reporter gene assay) EUB0001145aNa NR4A1; design: recommended concentration 1 uM
[36] = biological target: Nuclear receptor subfamily 2 group E member 1 (Homo sapiens) (UniProt Q9Y466); assay: Selectivity interaction (Reporter gene assay) EUB0001145aNa NR2E1; design: recommended concentration 1 uM

Sequence of Nuclear receptor subfamily 4immunitygroup A member 1 (Homo sapiens) (P22736 whole entry): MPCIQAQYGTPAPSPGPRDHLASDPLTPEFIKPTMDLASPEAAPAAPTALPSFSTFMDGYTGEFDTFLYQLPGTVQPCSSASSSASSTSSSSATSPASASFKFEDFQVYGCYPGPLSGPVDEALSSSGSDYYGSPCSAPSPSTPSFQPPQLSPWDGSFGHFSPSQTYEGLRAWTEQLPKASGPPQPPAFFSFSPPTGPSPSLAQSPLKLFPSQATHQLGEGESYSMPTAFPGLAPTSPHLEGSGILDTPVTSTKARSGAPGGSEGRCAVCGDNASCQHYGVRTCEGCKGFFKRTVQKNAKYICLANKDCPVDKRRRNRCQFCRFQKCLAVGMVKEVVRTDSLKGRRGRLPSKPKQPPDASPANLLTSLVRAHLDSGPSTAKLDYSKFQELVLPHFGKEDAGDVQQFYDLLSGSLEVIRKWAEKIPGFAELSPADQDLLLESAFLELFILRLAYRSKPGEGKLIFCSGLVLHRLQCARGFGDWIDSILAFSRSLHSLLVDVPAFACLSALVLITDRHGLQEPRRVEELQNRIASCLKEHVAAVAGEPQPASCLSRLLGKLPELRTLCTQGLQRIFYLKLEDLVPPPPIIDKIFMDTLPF
Sequence of Steroidogenic factor 1 (Homo sapiens) (Q13285 whole entry): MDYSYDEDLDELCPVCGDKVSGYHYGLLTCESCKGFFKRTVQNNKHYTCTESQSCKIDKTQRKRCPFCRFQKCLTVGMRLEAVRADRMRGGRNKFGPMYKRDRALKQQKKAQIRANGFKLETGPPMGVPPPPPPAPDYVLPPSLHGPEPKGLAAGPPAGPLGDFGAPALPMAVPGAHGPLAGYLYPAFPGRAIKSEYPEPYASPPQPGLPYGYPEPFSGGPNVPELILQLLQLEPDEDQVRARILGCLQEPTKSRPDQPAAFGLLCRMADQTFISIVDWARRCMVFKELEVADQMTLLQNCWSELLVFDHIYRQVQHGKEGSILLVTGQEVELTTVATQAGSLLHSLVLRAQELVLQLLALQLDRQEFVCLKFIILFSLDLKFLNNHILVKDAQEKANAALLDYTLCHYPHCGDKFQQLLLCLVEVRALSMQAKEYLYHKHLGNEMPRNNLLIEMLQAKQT
Sequence of Nuclear receptor subfamily 2 group E member 1 (Homo sapiens) (Q9Y466 whole entry): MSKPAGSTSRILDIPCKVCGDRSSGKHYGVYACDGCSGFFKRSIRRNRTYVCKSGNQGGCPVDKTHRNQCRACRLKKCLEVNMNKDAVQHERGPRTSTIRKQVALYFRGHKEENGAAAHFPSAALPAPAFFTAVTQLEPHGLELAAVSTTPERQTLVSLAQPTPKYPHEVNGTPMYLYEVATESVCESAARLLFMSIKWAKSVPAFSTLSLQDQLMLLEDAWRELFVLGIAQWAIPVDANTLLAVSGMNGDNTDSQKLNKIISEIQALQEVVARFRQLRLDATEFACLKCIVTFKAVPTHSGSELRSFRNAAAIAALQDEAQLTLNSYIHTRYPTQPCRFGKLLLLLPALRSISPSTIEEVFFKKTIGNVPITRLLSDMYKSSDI
T4 sequence (A0A5J6DW59 as listed by the source): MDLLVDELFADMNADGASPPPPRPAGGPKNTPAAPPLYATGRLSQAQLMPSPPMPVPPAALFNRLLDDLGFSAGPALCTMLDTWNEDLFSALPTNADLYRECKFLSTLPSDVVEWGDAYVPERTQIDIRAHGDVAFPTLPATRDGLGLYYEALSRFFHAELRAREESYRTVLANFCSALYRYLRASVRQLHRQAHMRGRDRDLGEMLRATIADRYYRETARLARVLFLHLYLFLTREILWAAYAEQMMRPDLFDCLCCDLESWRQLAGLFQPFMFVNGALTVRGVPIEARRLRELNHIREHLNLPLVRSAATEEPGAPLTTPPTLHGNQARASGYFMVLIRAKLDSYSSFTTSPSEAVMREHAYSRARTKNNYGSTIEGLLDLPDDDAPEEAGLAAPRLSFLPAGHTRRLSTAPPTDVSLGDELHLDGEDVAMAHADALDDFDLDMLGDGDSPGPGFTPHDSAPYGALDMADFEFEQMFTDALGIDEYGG
Sequence of Peroxisome proliferator-activated receptor alpha (Homo sapiens) (Q07869 whole entry): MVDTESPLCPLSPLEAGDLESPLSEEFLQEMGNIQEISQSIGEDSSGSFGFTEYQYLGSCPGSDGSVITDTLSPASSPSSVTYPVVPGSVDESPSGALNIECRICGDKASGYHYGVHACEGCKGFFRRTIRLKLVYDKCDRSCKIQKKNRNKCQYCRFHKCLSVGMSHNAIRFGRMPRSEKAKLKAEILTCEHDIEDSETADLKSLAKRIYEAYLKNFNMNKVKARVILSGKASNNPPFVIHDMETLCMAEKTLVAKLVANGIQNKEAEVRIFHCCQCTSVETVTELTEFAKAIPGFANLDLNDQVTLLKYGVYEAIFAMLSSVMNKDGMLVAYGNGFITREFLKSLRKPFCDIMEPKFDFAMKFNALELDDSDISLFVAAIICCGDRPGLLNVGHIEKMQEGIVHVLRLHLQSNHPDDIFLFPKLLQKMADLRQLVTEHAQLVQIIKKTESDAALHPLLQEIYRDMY

Compound: CCOC(=O)C1Cc2ccccc2CN1C(=O)c1ccc(SC)s1 (stereo unspecified)
- Fold activation [1]: 1.33
- Fold activation [2]: 1.11
- Fold activation [3]: 1.13
- Remaining activity [4]: 0.77
- Relative activation [5]: 0.245%
- Fold activation [6]: 2.05
- P-value [7]: 0.0358

Compound: O=C(Nc1ccc(C(O)(C(F)(F)F)C(F)(F)F)cc1)c1ccc(C(F)(F)F)cc1
- Fold activation [8]: 1.1
- Relative activation [9]: 0.302%
- P-value [10]: 0.167
- Remaining activity [11]: 0.858
- Fold activation [12]: 1.11
- Fold activation [13]: 1.1
- Remaining activity [14]: 0.903

Compound: CCCCCNC(=O)N1CCC(CN(Cc2ccc(Cl)cc2)Cc2ccc([N+](=O)[O-])s2)C1 (stereo unspecified)
- Remaining activity [15]: 0.487
- Remaining activity [16]: 0.711
- Fold activation [17]: 1.16
- P-value [18]: 1.75e-05
- Fold activation [19]: 1.24
- Remaining activity [20]: 0.483
- Relative activation [21]: 0.1%

Compound: O=C(O)CCCc1cc2cc(Cl)ccc2n1S(=O)(=O)c1ccc2ncsc2c1
- Fold activation [22]: 5.01
- Fold activation [23]: 1.16
- Remaining activity [24]: 0.743
- Relative activation [25]: 1.07%
- Remaining activity [26]: 0.755
- P-value [27]: 0.0075
- Fold activation [28]: 1.09
- Fold activation [29]: 1.19

Compound: CCO[C@H](COc1ccc(C(F)(F)F)cc1)CSc1ccc(OCC(=O)O)c(C)c1
- Fold activation [30]: 1.29
- Fold activation [31]: 1.13
- Relative activation [32]: 0.702%
- P-value [33]: 0.0052
- Fold activation [34]: 1.17
- Fold activation [35]: 1.09
- Fold activation [36]: 1.14
